Results taken from ChEMBL document CHEMBL3098003, “Structure-based design of 2-aminopyridine oxazolidinones as potent and selective tankyrase inhibitors” (ACS Med Chem Lett, 2013).
Calls of active or inactive are those of the source. No cut-off for these calls is given here.

Experiments:
[1] = Cytotoxicity against human DLD1 cells; format: functional, cell-based; conditions: DLD-1
[2] = target: Alpha-1A adrenergic receptor (Homo sapiens, UniProt P35348); experiment: Binding affinity to adrenergic alpha1A receptor (unknown origin)
[3] = Toxicity in po dosed athymic nude mouse administered bid for 8 days; format: organism-based; conditions: in vivo
[4] = target: C-C chemokine receptor type 2 (Homo sapiens, UniProt P41597); experiment: Binding affinity to CCR2 (unknown origin)
Mus musculus [5] = experiment: Toxicity in athymic nude mouse assessed as lethargy at 100 mg/kg, po bid for 8 days; format: organism-based; parameters: dose 100 mg/kg, route oral; conditions: in vivo, 192 h
[6] = target: Somatostatin receptor type 4 (Homo sapiens, UniProt P31391); experiment: Binding affinity to SST4 receptor (unknown origin)
[7] = target: Proto-oncogene tyrosine-protein kinase Src (Homo sapiens) (UniProt P12931); experiment: Inhibition of SRC (unknown origin) at 1 uM after 1 hr
Mus musculus [8] = experiment: In vivo inhibition of tankyrase-mediated axin2 gene expression in tumor of athymic nude mouse xenografted with human DLD1 cells at 200 mg/kg, po bid for 3 days by STF assay; format: functional, organism-based; parameters: dose 200 mg/kg; conditions: DLD-1
Tankyrase 1/2 [9] = target: T1, Tankyrase 1/2 (Homo sapiens, UniProt Q9H2K2+O95271); experiment: Inhibition of tankyrase in human SW480 cells assessed as degradation of total beta-catenin after 40 to 48 hrs; format: cell-based
T1 sequence (Q9H2K2 whole entry): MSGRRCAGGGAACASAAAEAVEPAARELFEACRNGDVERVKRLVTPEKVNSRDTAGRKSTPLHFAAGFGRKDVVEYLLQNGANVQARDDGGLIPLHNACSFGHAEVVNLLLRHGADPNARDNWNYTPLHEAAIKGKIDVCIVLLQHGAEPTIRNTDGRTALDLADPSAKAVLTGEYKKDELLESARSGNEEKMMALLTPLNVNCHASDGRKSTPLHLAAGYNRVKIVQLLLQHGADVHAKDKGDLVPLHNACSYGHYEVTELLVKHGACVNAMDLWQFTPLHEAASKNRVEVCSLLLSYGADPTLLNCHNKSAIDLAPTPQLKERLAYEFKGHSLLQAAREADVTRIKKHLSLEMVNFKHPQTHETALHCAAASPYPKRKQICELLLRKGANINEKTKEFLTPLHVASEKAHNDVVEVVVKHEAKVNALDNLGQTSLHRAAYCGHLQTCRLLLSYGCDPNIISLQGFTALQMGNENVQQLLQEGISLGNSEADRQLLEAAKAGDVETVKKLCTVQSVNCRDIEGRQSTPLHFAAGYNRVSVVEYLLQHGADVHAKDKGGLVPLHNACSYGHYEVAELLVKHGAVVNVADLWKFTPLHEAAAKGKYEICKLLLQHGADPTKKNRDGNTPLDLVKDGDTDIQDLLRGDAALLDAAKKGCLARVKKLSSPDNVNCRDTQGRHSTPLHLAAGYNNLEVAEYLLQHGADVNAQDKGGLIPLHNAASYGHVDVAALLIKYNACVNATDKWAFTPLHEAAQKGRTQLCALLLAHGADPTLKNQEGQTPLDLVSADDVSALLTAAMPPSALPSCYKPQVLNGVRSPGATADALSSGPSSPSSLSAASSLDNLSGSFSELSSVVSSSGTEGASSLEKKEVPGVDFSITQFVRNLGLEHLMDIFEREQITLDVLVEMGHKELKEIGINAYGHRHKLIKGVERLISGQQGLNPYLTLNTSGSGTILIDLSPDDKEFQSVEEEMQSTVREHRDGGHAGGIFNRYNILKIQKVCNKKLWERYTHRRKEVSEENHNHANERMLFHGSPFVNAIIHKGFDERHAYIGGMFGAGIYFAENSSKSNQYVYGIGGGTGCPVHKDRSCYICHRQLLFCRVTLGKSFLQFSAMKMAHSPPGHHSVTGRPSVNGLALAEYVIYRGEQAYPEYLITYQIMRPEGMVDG
T1 sequence (O95271 whole entry): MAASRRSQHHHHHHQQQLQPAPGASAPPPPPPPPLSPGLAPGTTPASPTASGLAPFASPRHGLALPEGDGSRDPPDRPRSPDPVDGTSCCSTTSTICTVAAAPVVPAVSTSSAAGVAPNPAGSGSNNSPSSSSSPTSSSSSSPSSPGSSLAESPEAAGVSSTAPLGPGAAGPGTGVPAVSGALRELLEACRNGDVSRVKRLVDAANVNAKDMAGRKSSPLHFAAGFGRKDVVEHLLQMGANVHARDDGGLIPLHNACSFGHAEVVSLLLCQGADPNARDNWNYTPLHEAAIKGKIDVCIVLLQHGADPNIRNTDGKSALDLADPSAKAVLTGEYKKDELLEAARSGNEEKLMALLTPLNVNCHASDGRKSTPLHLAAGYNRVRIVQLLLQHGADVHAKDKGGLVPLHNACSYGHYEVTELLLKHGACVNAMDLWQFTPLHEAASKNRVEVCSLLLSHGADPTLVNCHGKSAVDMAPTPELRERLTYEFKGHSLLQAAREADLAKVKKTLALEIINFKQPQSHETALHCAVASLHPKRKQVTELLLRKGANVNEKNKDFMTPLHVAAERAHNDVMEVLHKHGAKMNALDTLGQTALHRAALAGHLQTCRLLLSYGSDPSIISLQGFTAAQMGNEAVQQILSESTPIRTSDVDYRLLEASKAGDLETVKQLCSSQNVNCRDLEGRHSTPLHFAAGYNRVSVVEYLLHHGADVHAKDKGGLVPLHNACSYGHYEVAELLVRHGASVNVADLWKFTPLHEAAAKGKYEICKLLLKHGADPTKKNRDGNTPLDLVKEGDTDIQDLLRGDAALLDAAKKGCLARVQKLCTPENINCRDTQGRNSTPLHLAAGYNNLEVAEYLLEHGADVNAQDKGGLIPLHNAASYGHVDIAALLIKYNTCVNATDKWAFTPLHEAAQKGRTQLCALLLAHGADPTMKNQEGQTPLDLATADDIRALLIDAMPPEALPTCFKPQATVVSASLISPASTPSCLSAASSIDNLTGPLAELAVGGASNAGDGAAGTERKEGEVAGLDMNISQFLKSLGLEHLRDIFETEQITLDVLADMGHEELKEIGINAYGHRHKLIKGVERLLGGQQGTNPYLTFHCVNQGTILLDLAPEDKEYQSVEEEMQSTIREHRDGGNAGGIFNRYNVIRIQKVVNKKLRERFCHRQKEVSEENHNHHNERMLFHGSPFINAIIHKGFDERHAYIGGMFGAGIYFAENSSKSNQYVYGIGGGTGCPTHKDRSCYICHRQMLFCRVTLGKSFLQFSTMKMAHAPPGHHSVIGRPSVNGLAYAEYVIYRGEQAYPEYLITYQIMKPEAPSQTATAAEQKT

Mus musculus [10] = experiment: In vivo inhibition of tankyrase-mediated TCF7 gene expression in tumor of athymic nude mouse xenografted with human DLD1 cells at 200 mg/kg, po bid for 3 days by STF assay; format: functional, organism-based; parameters: dose 200 mg/kg; conditions: DLD-1
Tankyrase 1/2 [11] = target: T1, Tankyrase 1/2; experiment: Inhibition of tankyrase in human DLD1 cells assessed as inhibition of Wnt gene transcription after 40 to 48 hrs by STF assay; format: cell-based; conditions: dld-1
Mus musculus [12] = experiment: In vivo inhibition of tankyrase in tumor of athymic nude mouse xenografted with human DLD1 cells assessed as axin accumulation at 200 mg/kg, po bid for 3 days; format: functional, organism-based; parameters: dose 200 mg/kg; conditions: DLD-1

Proto-oncogene tyrosine-protein kinase Src (Homo sapiens), sequence (P12931 2-536 limits assumed): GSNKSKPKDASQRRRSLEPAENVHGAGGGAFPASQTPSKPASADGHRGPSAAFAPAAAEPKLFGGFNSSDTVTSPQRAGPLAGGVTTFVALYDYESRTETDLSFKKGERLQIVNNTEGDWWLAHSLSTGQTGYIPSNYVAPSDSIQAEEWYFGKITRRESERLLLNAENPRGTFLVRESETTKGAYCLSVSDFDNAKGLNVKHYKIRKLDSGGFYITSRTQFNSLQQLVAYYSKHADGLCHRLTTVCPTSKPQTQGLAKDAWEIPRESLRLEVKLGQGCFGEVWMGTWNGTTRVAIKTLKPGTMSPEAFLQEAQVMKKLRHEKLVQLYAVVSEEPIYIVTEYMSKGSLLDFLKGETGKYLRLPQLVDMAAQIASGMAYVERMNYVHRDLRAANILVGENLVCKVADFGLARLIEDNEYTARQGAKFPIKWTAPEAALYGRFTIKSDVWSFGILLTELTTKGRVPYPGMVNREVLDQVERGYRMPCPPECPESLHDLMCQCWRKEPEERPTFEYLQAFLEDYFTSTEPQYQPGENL
Somatostatin receptor type 4, sequence (P31391 whole entry): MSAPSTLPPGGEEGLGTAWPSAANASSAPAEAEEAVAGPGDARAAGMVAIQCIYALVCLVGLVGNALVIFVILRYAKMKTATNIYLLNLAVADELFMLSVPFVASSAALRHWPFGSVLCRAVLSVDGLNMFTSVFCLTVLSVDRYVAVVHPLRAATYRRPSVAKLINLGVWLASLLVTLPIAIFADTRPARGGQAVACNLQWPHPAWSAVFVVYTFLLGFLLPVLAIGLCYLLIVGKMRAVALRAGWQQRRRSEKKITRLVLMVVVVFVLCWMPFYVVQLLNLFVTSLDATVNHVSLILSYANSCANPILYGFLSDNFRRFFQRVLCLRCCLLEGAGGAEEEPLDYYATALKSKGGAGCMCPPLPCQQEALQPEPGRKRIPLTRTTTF
C-C chemokine receptor type 2, sequence (P41597 whole entry): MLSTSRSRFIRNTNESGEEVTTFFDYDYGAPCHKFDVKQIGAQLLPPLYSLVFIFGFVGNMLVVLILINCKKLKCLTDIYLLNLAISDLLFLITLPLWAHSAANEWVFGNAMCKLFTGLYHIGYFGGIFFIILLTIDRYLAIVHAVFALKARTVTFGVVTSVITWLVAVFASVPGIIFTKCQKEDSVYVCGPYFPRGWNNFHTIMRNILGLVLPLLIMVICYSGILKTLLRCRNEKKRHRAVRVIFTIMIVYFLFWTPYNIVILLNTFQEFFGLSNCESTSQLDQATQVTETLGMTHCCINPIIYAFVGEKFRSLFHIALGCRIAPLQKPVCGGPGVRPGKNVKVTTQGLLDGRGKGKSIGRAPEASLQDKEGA
Alpha-1A adrenergic receptor, sequence (P35348 whole entry): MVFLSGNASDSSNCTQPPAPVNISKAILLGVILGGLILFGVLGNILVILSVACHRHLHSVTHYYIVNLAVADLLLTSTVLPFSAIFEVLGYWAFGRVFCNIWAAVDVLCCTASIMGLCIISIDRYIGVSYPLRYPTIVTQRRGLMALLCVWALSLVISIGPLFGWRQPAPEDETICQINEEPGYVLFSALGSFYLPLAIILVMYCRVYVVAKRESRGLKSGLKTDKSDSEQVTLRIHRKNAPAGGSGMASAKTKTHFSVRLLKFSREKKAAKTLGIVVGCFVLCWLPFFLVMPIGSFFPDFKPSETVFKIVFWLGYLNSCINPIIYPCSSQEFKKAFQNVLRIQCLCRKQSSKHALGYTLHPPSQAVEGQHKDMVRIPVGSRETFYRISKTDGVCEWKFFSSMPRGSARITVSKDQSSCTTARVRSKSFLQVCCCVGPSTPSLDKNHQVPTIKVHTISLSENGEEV

In the case of CC1(C)OC(=O)N([C@H]2CC[C@H](c3cnc(N)c(-c4ncccn4)c3)CC2)[C@H]1c1ccccc1, the IC50 [1] is reported as 3000 nM, the IC50 [2] is reported as greater than 48.5 µM and the MTD at 192 h [3] is reported as 50 mg/kg. The IC50 [4] was greater than 48.5 µM, the Activity (Mus musculus [5]) was “Toxic” and the IC50 [6] was greater than 48.5 µM. The inhibition [7] was “inactive”.

With CC1(C)OC(=O)N(c2ccc(-c3cnc(N)c(-c4ncccn4)c3)cc2)[C@H]1c1ccccc1 the inhibition (Mus musculus [8]) was “Active”, the IC50 (Tankyrase 1/2 [9]) was 0.233 µM and the inhibition (Mus musculus [10]) was “Active”. The IC50 (Tankyrase 1/2 [11]) was 0.096 µM, the inhibition (Mus musculus [12]) was “Active” and the inhibition [7] was “inactive”.
